Results published in publication PMC9965539, “Adverse Toxic Effects of Tyrosine Kinase Inhibitors on Non-Target Zebrafish Liver (ZFL) Cells” (International Journal of Molecular Sciences, 2023).

Legend:
[1] = system: zebrafish liver cells (ZFL); test: Cell cycle analysis with flow cytometry; assay type: cell-based; conditions: 72 h; for effect on cell cycle progression: concentration-dependent, parallel decrease in S-phase fraction
Procedure: ZFL cells were seeded onto T25 culture plates at a density of 450,000 cells for 24 h. […] The positive control was etoposide (0.17 μM), which is known to arrest cells in the G2/M phase of the cell cycle. After 72 h, cells were trypsinized (0.25% trypsin-EDTA) and washed with 1x PBS before fixation in 4% paraformaldehyde (PFA). For flow cytometric analysis, fixed cells were washed in cold 1x PBS and stained with Hoechst 33258 dye (diluted in 0.1% Triton X-100 1:500) as described by Stampar et al.. Flow cytometric measurements were performed using a MACSQuant Analyzer 10 and the experiment was repeated three times independently. Each time, 20,000 single cells were recorded per experimental point. The data obtained were analyzed using FlowJo V10 software (Becton Dickinson, Franklin Lakes, NJ, USA). Statistical analysis for cell cycle was performed by the two-way ANOVA with Fisher’s LSD test using GraphPad Prism V6 (GraphPad Software, La Jolla, CA, USA). * p < 0.05, ** (p < 0.01), *** (p < 0.001) were considered statistically significant.

[2] = system: ovarian carcinoma A2780 cells; design: method as in PMID 28223694; conditions: up to 10 μM, 24 h; cited from earlier work
[3] = system: zebrafish liver cells (ZFL); test: Micronucleus detection by flow cytometry; assay type: cell-based; conditions: 72 h; for MNi frequency: non-cytotoxic concentrations
Procedure: ZFL cells were seeded onto 24-well culture plates (Nunclon) at a density of 35,000 cells per well for 24 h. […] Etoposide (0.17 μM and 0.68 μM) was used as a positive control. After 72 h, cells were placed on ice for 20 min, and subsequently a 0.05 mg/mL EMA solution was added to each well. The cells were placed on ice for 30 min and exposed to light for photoactivation of the EMA fluorochrome. Afterwards, cells were washed and resuspended in lysis solution (0.584 mg/mL NaCl, 1 mg/mL sodium citrate, and 0.3 μL/mL Triton X-100) containing 0.2 μM SYTOX Green and 0.25 mg/mL RNAse A, and incubated for 1 h in the dark at 37 °C. After incubation, lysis solution (85.6 mg/mL sucrose and 15 mg/mL citric acid) containing 0.2 μM SYTOX Green was added to the wells of the plate and incubated for a further 30 min at room temperature in the dark. Cells were analyzed on the same day using MACSQuant Analyzer 10 flow cytometer. MASCQuantify Software 2.11. was used to analyze each sample, and the percentage of micronuclei was determined after the acquisition of a total of 20,000 gated nuclei events, excluding EMA-positive events. One-way ANOVA with post hoc multiple comparison Dunett’s test using GraphPad Prism V6 (GraphPad Software, Carlsbad, CA, USA) was carried out. * p < 0.05 and *** p < 0.0001 were considered statistically significant.

[4] = system: human ovarian cancer cells (SKOV-3 cells); design: method as in Mak et al. 66; conditions: 10 µM, 72 h; ref Mak et al. 66; cited from earlier work
Alium cepa = system: Alium cepa; design: method as in doi:10.1508/cytologia.86.195; conditions: dose-dependent; cited from earlier work
H520 and H1975 cells = system: H520 and H1975 cells; design: method as in PMID 24447935; conditions: highest concentration tested; cited from earlier work
[5] = system: zebrafish liver cells (ZFL); test: Propidium iodide live/dead staining by flow cytometry; assay type: cell-based; conditions: for percentage of PI negative cells: 72 h exposure, low concentrations
Procedure: Benzo[a]pyrene (50 μM), an indirect-acting genotoxic agent which requires metabolic activation for its genotoxic effects, and etoposide (0.17 μM), a direct-acting genotoxic agent, were selected as positive controls. After 72 h, floating and adherent cells were collected, resuspended in ice-cold 1x PBS, and immediately analyzed. Propidium iodide (PI) at a final concentration of 1 μg/mL was added to the cells 5 min before the start of measurements using the MACSQuant Analyzer 10 flow cytometer (Miltenyi Biotech, Bergisch Gladbach, Germany). MASCQuantifiy software (Miltenyi Biotech, Bergisch Gladbach, Germany) was used to quantify PI negative and positive cells. The experiments were repeated three times independently. Statistical significance between the treated groups and control was determined by one-way ANOVA with post hoc multiple comparison Dunett’s test using GraphPad Prism V6 (GraphPad Software, La Jolla, CA, USA). * p < 0.05 was considered statistically significant.

Huh-7 cells = conditions: 24 h; cited from earlier work
[6] = system: zebrafish liver cells (ZFL); test: MTS assay, viability of ZFL cells; assay type: cell-based; conditions: for viability of the ZFL cells: 24, 48, 72 h, dose- and time-dependent, ERL and NIL up to their maximum solubility; for cytotoxic effects in ZFL cells (MTS): concentrations up to 60 µM, up to 72 h exposure
Procedure: (§1) The viability of ZFL cells after 24, 48, and 72 h of exposure to TKIs was determined using the tetrazolium-based (MTS) assay (Cell Titer 96 AQueous Non-Radioactive Cell Proliferation Assay; Promega, Madison, WI, USA) as previously described by Novak et al.. Cells were seeded in 96-well microtiter plates (Corning Costar Corporation, New York, NY, USA) at a density of 7000 cells/well. […] Three independent experiments were performed, each with five replicates per treatment point. The statistical significance between the treated groups and the solvent control was determined by Student’s t-test using GraphPad Prism V6 (GraphPad Software, La Jolla, CA, USA). *** (p < 0.001)was considered statistically significant.

HepG2 cells = conditions: 24 h of exposure; cited from earlier work
A549 cells = system: A549 cells; design: method as in Kryeziu et al. 65; conditions: 20 µM, 6 h exposure; ref Kryeziu et al. 65; cited from earlier work
HepG2 and HepaRG cells = system: HepG2 and HepaRG cells; design: method as in PMID 28659801; conditions: 20 µM highest concentration tested; cited from earlier work
[7] = system: human lymphocytes or Chinese hamster ovary cells in vitro and rat bone marrow; conditions: ref 11 (REG), 69 (ERL), 59 (NIL); cited from earlier work
H295R cells = system: H295R cells; design: method as in Silveira et al. 28; conditions: 10 µM; ref Silveira et al. 28; cited from earlier work
[8] = system: zebrafish liver cells (ZFL); test: Alkaline comet assay (DNA strand breaks); assay type: cell-based; conditions: 24 h of exposure, non-cytotoxic concentrations
Procedure: The induction of DNA strand breaks after TKI exposure was assessed by the comet assay according to Møller et al., with minor modifications. Briefly, ZFL cells were seeded at a density of 100,000 cells/well onto 12-well cell culture plates (Corning Costar Corporation, New York, NY, USA) and incubated for 24 h to attach. […] B(a)P (50 μM) was used as a positive control. After treatment, ZFL cells were trypsinized, collected, and centrifuged. Thirty μL of the cell suspension was mixed with 70 μL of 1% LMP agarose and placed on fully frosted slides pre-coated with 80 μL of 1% NMP agarose. Cells were then lysed for 1 h at 4 °C (2.5 M NaCl, 100 mM EDTA, 10 mM Tris, 1% Triton X-100, pH 10). DNA was subsequently denatured in electrophoresis buffer (1 mM EDTA, 300 mM NaOH, pH 13) for 20 min at 4 °C and slides were electrophoresed at 25 V (at 1 V/cm) for 20 min. Finally, nuclei were stained with GelRed (Biotium, Fremont, CA, USA). Images of 50 randomly selected nuclei per experimental point were acquired with the Eclipse 800 fluorescence microscope (Nikon, Tokyo, Japan) at 400× magnification using image analysis software (Comet Assay IV, Instem, UK). The statistical significance between control and treated groups was determined by one-way analysis of variance (ANOVA, Kruskal–Wallis) and Dunn’s multiple comparison test. * p < 0.05 was considered statistically significant.

[9] = system: human lymphoblastoid TK6 cells; design: method as in PMID 25111698; conditions: up to 4.4 μM, 24 h, without and with metabolic activation; cited from earlier work
[10] = MTS assay, viability of ZFL cells; assay type: cell-based, zebrafish; conditions: zebrafish, ZFL cells (zebrafish liver cell line), ZFL cells, read-out: IC50 for TKIs Cytotoxicity (95% Confidence Interval)
Procedure: as §1

[11] = system: certain target cancer cells; design: method as in ref 56, 57 (DAS), 58, 59 (REG); conditions: in vitro; 57 (DAS), 58, 59 (REG); cited from earlier work

Row | SMILES | concentration that induced G0/G1 cell cycle arrest with decrease in number of cells in S phase [1] [µM] | effect on cell cycle progression [1] | MNi frequency [3] | percentage of PI negative cells [5] | viability of the ZFL cells [6] | cytotoxic effects in ZFL cells (MTS) [6] | mutagenicity/genotoxicity (chromosomal damage/genomic instability) [7] | concentration with statistically significant increase in percentage of tail DNA [8] [nM] | other results
1 | C#Cc1cccc(Nc2ncnc3cc(OCCOC)c(OCCOC)cc23)c1 [ERL, erlotinib] | 40 | arrest of the cell cycle in the G0/G1 phase | did not significantly increase | did not significantly decrease | did not affect cell viability | no cytotoxic effect | not mutagenic/genotoxic |  | MNi formation [2]: did not induce MNi formation; percentage of tail DNA [4]: increases the percentage of tail DNA; mitotic index and cytological aberrations (Alium cepa): decreased the mitotic index and increased cytological aberrations; reduction in viability (H520 and H1975 cells): 20%; concentration with cell cycle arrest (Huh-7 cells): 25 µM; concentration inducing apoptosis (HepG2 cells): 25 µM; concentration inducing cell cycle arrest (HepG2 cells): 10 µM; DNA damage (alkaline comet assay) (A549 cells): did not induce DNA damage; cytotoxicity (HepG2 and HepaRG cells): only slight cytotoxicity
2 | Cc1cn(-c2cc(NC(=O)c3ccc(C)c(Nc4nccc(-c5cccnc5)n4)c3)cc(C(F)(F)F)c2)cn1 [NIL, nilotinib] |  |  | did not significantly increase |  | did not affect cell viability | no cytotoxic effects |  | ≥ 2000 | decrease of the percentage of PI negative cells ([5]; highest concentration tested, 72 h): approximately 20%; decrease of survival (H295R cells): 62.9%
3 | CNC(=O)c1cc(Oc2ccc(NC(=O)Nc3ccc(Cl)c(C(F)(F)F)c3)c(F)c2)ccn1 [REG, regorafenib] | 3 | arrest of the cell cycle in the G0/G1 phase | did not significantly increase | did not significantly decrease | reduced |  | not mutagenic/genotoxic | ≥ 800 | MNi formation [9]: did not induce MNi formation; IC50 at 24 h ([10]; 24 h exposure): 5.64 µM; IC50 at 48 h ([10]; 48 h exposure): 4.54 µM; IC50 at 72 h ([10]; 72 h exposure): 3.59 µM; DNA damage assessed by comet assay [11]: induce DNA damage
4 | COc1cc([C@@H]2c3cc4c(cc3[C@@H](O[C@@H]3O[C@@H]5CO[C@@H](C)O[C@H]5[C@H](O)[C@H]3O)[C@H]3COC(=O)[C@H]23)OCO4)cc(OC)c1O [etoposide, Etoposide] |  |  |  |  |  |  |  |  | MNi in representative dot plot ([3]; 0.17 μM): increased amount of MNi
